Columns and labels:
Hepatitis B virus [1] = experiment: Antiviral activity against Hepatitis B virus in HBeAg-positive chronic hepatitis B patient assessed as HBV DNA level in serum at 600 mg/day after 12 weeks (reference value: 10.29 log10copies/ml); format: functional
Homo sapiens [2] = species on record: Homo sapiens; experiment: Hepatotoxicity in HBeAg-positive chronic hepatitis B patient assessed as reduction in alanine aminotransferase level at 0.5 mg/day after 12 weeks (reference value: 170.2 IU/liter); format: toxicity, organism-based; details: in vivo, 2016 h
Hepatitis B virus [3] = experiment: Antiviral activity against Hepatitis B virus in HBeAg-positive chronic hepatitis B patient assessed as mean viral clearance rate at 0.5 mg/day; format: functional
Hepatitis B virus [4] = experiment: Antiviral activity against Hepatitis B virus in HBeAg-positive chronic hepatitis B patient assessed as mean rate of infected cell loss at 0.5 mg/day; format: functional
Hepatitis B virus [5] = experiment: Antiviral activity against Hepatitis B virus in HBeAg-positive chronic hepatitis B patient assessed as mean efficiency factor of blocking virus production at 0.5 mg/day; format: functional
Homo sapiens [6] = species on record: Homo sapiens; experiment: Toxicity in HBeAg-positive chronic hepatitis B patient assessed as increase in ALT level at 0.5 mg/day; format: organism-based; details: in vivo
Homo sapiens [7] = species on record: Homo sapiens; experiment: Toxicity in HBeAg-positive chronic hepatitis B patient assessed as upper respiratory tract infection at 0.5 mg/day; format: organism-based; details: in vivo
Homo sapiens [8] = species on record: Homo sapiens; experiment: Toxicity in HBeAg-positive chronic hepatitis B patient assessed as chest discomfort at 0.5 mg/day; format: organism-based; details: in vivo
Homo sapiens [9] = species on record: Homo sapiens; experiment: Toxicity in HBeAg-positive chronic hepatitis B patient assessed as abdominal discomfort at 0.5 mg/day; format: organism-based, Abdomen; details: in vivo
Homo sapiens [10] = species on record: Homo sapiens; experiment: Toxicity in HBeAg-positive chronic hepatitis B patient assessed as upper abdominal pain at 0.5 mg/day; format: organism-based, Abdomen; details: in vivo
Homo sapiens [11] = species on record: Homo sapiens; experiment: Toxicity in HBeAg-positive chronic hepatitis B patient assessed as increase in AST level at 0.5 mg/day; format: organism-based; details: in vivo
Homo sapiens [12] = species on record: Homo sapiens; experiment: Toxicity in HBeAg-positive chronic hepatitis B patient assessed as conjunctival hypermia at 0.5 mg/day; format: organism-based, Conjunctiva; details: in vivo
Homo sapiens [13] = species on record: Homo sapiens; experiment: Toxicity in HBeAg-positive chronic hepatitis B patient assessed as dyspnea at 0.5 mg/day; format: organism-based; details: in vivo
Homo sapiens [14] = species on record: Homo sapiens; experiment: Toxicity in HBeAg-positive chronic hepatitis B patient assessed as gingival bleeding at 0.5 mg/day; format: organism-based; details: in vivo
Homo sapiens [15] = species on record: Homo sapiens; experiment: Toxicity in HBeAg-positive chronic hepatitis B patient assessed as hyperphosphatemia at 0.5 mg/day; format: organism-based; details: in vivo
Homo sapiens [16] = species on record: Homo sapiens; experiment: Toxicity in HBeAg-positive chronic hepatitis B patient assessed as myalgia at 0.5 mg/day; format: organism-based; details: in vivo
Homo sapiens [17] = species on record: Homo sapiens; experiment: Toxicity in HBeAg-positive chronic hepatitis B patient assessed as neutropenia at 0.5 mg/day; format: organism-based; details: in vivo
Homo sapiens [18] = species on record: Homo sapiens; experiment: Toxicity in HBeAg-positive chronic hepatitis B patient assessed as thrombocytopenia at 0.5 mg/day; format: organism-based; details: in vivo
Homo sapiens [19] = species on record: Homo sapiens; experiment: Toxicity in HBeAg-positive chronic hepatitis B patient assessed as increase in blood CK level at 0.5 mg/day; format: organism-based; details: in vivo
Homo sapiens [20] = species on record: Homo sapiens; experiment: Toxicity in HBeAg-positive chronic hepatitis B patient assessed as nausea at 0.5 mg/day; format: organism-based; details: in vivo
Homo sapiens [21] = experiment: Toxicity in HBeAg-positive chronic hepatitis B patient assessed as facial edema at 0.5 mg/day; format: organism-based; details: in vivo
Homo sapiens [22] = species on record: Homo sapiens; experiment: Toxicity in HBeAg-positive chronic hepatitis B patient assessed as headache at 0.5 mg/day; format: organism-based; details: in vivo
Homo sapiens [23] = species on record: Homo sapiens; experiment: Toxicity in HBeAg-positive chronic hepatitis B patient assessed as hordeolum at 0.5 mg/day; format: organism-based; details: in vivo
Homo sapiens [24] = species on record: Homo sapiens; experiment: Toxicity in HBeAg-positive chronic hepatitis B patient assessed as insomnia at 0.5 mg/day; format: organism-based; details: in vivo
Homo sapiens [25] = species on record: Homo sapiens; experiment: Toxicity in HBeAg-positive chronic hepatitis B patient assessed as myringitis at 0.5 mg/day; format: organism-based; details: in vivo
Homo sapiens [26] = species on record: Homo sapiens; experiment: Toxicity in HBeAg-positive chronic hepatitis B patient assessed as nasophayngitis at 0.5 mg/day; format: organism-based; details: in vivo
Homo sapiens [27] = species on record: Homo sapiens; experiment: Toxicity in HBeAg-positive chronic hepatitis B patient assessed as proteinuria at 0.5 mg/day; format: organism-based; details: in vivo
Homo sapiens [28] = species on record: Homo sapiens; experiment: Toxicity in HBeAg-positive chronic hepatitis B patient assessed as vaginal hemorrhage at 0.5 mg/day; format: organism-based; details: in vivo
Homo sapiens [29] = species on record: Homo sapiens; experiment: Toxicity in HBeAg-positive chronic hepatitis B patient assessed as vomiting at 0.5 mg/day; format: organism-based; details: in vivo
Homo sapiens [30] = species on record: Homo sapiens; experiment: Toxicity in HBeAg-positive chronic hepatitis B patient assessed as peripheral neuropathy at 0.5 mg/day; format: organism-based; details: in vivo
Homo sapiens [31] = species on record: Homo sapiens; experiment: Toxicity in HBeAg-positive chronic hepatitis B patient assessed as muscular weakness at 0.5 mg/day; format: organism-based; details: in vivo

Measured: Activity

C=C1[C@H](CO)[C@@H](O)C[C@@H]1n1cnc2c(=O)[nH]c(N)nc21.O [ENTECAVIR]
0%: Homo sapiens [9] | Homo sapiens [10] | Homo sapiens [11] | Homo sapiens [12] | Homo sapiens [13] | Homo sapiens [14] | Homo sapiens [15] | Homo sapiens [16] | Homo sapiens [17] | Homo sapiens [18]
116.3 IU/L: Homo sapiens [2]
Non-toxic: Homo sapiens [30] | Homo sapiens [31]
0.071 day⁻¹: Hepatitis B virus [4]
2%: Homo sapiens [7] | Homo sapiens [20]
3 patients: Homo sapiens [19]
1.002 day⁻¹: Hepatitis B virus [3]
99.2%: Hepatitis B virus [5]
1%: Homo sapiens [6] | Homo sapiens [8] | Homo sapiens [21] | Homo sapiens [22] | Homo sapiens [23] | Homo sapiens [24] | Homo sapiens [25] | Homo sapiens [26] | Homo sapiens [27] | Homo sapiens [28] | Homo sapiens [29]
6.5: Hepatitis B virus [1]

Source: ChEMBL document CHEMBL1255386, “Early viral kinetics of telbivudine and entecavir: results of a 12-week randomized exploratory study with patients with HBeAg-positive chronic hepatitis B” (Antimicrob Agents Chemother, 2010)
